In PubChem BioAssay (NCI):
Several values for one entry are separate records, joined by “and”; a condition that tells them apart may be missing. Identical values can stand only once.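 48-hour exposure; five concentrations; linearly interpolated endpoints. Here, GI50 denotes the concentration required for 50% inhibition of growth. At the TGI there is no net growth.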

Assays:
Assay in all cases: NCI-60 cell line screen, 48 h
786-0 renal = system: 786-0 renal
CCRF-CEM leukemia = system: CCRF-CEM leukemia
DU-145 prostate = system: DU-145 prostate
HCT-15 colon = system: HCT-15 colon
KM12 colon = system: KM12 colon
MDA-MB-231 breast = system: MDA-MB-231 breast
MDA-MB-435 = system: MDA-MB-435
NCI/ADR-RES ovarian = system: NCI/ADR-RES ovarian
SF-268 CNS = system: SF-268 CNS
UO-31 renal = system: UO-31 renal

Structure (SMILES) | GI50 (786-0 renal) | TGI (786-0 renal) | GI50 (CCRF-CEM leukemia) | TGI (CCRF-CEM leukemia) | GI50 (DU-145 prostate) | TGI (DU-145 prostate) | GI50 (HCT-15 colon) | TGI (HCT-15 colon) | GI50 (KM12 colon) | TGI (KM12 colon) | GI50 (MDA-MB-231 breast) | TGI (MDA-MB-231 breast) | GI50 (MDA-MB-435) | TGI (MDA-MB-435) | GI50 (NCI/ADR-RES ovarian) | TGI (NCI/ADR-RES ovarian) | GI50 (SF-268 CNS) | TGI (SF-268 CNS) | GI50 (UO-31 renal) | TGI (UO-31 renal)
CN1CCN(CC(=O)N2c3cccc4cccc(c34)N(C(=O)CN3CCN(C)CC3)C2c2cn(-c3ccccc3)nc2-c2cccc([N+](=O)[O-])c2)CC1 | 1.76 µM | 3.21 µM | 1.69 µM | 4.45 µM | 3.27 µM | 10.4 µM | 1.98 µM | 4.06 µM | 1.85 µM | 3.43 µM | 1.84 µM | 3.68 µM | 1.98 µM | 3.93 µM | 3.68 µM | 14.3 µM | 1.95 µM | 4.95 µM | 1.32 µM | 2.75 µM
C[CH2][Sn]([CH2]C)([O]C(=O)c1ccc(F)cc1)[O][Sn]([CH2]C)([CH2]C)[O]C(=O)c1ccc(F)cc1 | 53.6 µM | > 100 µM | 10.7 µM | 57.6 µM |  |  | > 100 µM | > 100 µM | > 100 µM | > 100 µM |  |  |  |  |  |  | 67.4 µM | > 100 µM | > 100 µM | > 100 µM
Cc1cc(N(CCOS(C)(=O)=O)CCOS(C)(=O)=O)ccc1C=Nc1ccc(-c2csc(-c3ccc(Br)cc3)n2)cc1 |  | 20.7 µM |  | > 100 µM |  | 57.4 µM |  | 50.3 µM |  | 21.6 µM |  | 39.2 µM |  | 58.8 µM |  | 90.7 µM |  | > 80.2 µM |  | 33.6 µM
COC1CC(OC)C(O)C(CO)O1 (stereo not given) |  | > 100 µM |  | > 100 µM |  |  |  | > 100 µM |  | > 100 µM |  |  |  |  |  |  |  |  |  | > 100 µM
CCOC(=O)NC1CC2CCC1(OC)C=C2C (stereo not given) |  | > 100 µM |  | > 100 µM |  |  |  | > 100 µM |  | > 100 µM |  |  |  |  |  |  |  | > 100 µM |  | > 100 µM
COc1cnc2c(c1)C(=O)c1c-2n(CCCNC(C)C)c(=O)c2cc([N+](=O)[O-])ccc12 | 0.0351 µM | 0.156 µM | 0.029 µM | 0.658 µM | 0.0502 µM | 0.403 µM | 0.124 µM | 0.402 µM | 0.221 µM | 0.981 µM | 0.157 µM | 0.438 µM | 0.109 µM | 0.261 µM | 0.0343 µM | 0.267 µM | 0.0488 µM | 1.42 µM | 0.0243 µM | 0.135 µM
C=C[C@H]1C=Cc2c(OC)cccc2[C@@H]1COP1(=S)NC(C)C(c2ccccc2)O1 (stereo not given in full) |  | > 100 µM |  | > 100 µM |  |  |  |  |  | > 100 µM |  |  |  |  |  |  |  | > 100 µM |  | 
COC(=O)Cc1cc(=O)n2c([nH]c3ccccc32)c1C#N |  | > 100 µM |  |  |  |  |  | > 100 µM |  | > 100 µM |  |  |  |  |  |  |  | > 100 µM |  | > 100 µM
c1ccc2c(CNCCCCCCCCCCCCNCc3cccc4ccccc34)cccc2c1 |  | 3.23 µM |  | 3.2 µM |  |  |  | 3.08 µM |  | 2.99 µM |  |  |  |  |  |  |  | 4.84 µM |  | 3.06 µM
c1ccc2c3c(ccc2c1)-c1c(ccc2c(NCCCCN4CCCCC4)cccc12)C3 | 1.76 µM | 3.14 µM |  |  | 1.77 µM | 3.33 µM | 1.86 µM | 3.79 µM | 1.51 µM | 3 µM | 0.599 µM | 2.21 µM | 1.91 µM | 3.31 µM | 1.61 µM | 2.96 µM | 1.07 µM | 2.25 µM | 2.61 µM | 7.66 µM
Cc1ccccc1NC(=O)c1ccc([N+](=O)[O-])cc1 |  | > 100 µM |  | > 100 µM |  |  |  | > 100 µM |  | > 100 µM |  |  |  |  |  |  |  | > 100 µM |  | > 100 µM
CCCCCCCCCCCCC(CCCCCCCCCCCC)OP(=O)(O)O |  | > 100 µM |  | > 100 µM |  |  |  | > 100 µM |  | > 100 µM |  |  |  |  |  |  |  | > 100 µM |  | > 100 µM
COc1ccc(C(c2cc3c(cc2O)OCO3)N2CCOCC2)cc1OC (stereo not given) |  | 23.1 µM |  |  |  | 24.4 µM |  | 15.8 µM |  | 24.9 µM |  | 15.8 µM |  | 23.4 µM |  | 20 µM |  | 25.5 µM |  | 25 µM
O=C(Cc1ccccc1)NS(=O)(=O)c1ccccc1 |  | > 100 µM |  | > 100 µM |  |  |  |  |  | > 100 µM |  |  |  |  |  |  |  | > 100 µM |  | > 100 µM
Cc1ccc(N2C(=O)C(Cl)=C(Cl)C2=O)cc1 |  | 31 µM |  | 23.4 µM |  |  |  | 33.3 µM |  | 45.2 µM |  |  |  |  |  |  |  | 37.8 µM |  | > 100 µM
CC1=Nc2ccccc2C12C(c1ccccc1)C(c1ccccc1)C(=O)N1c3ccccc3CC12 (stereo not given) |  | > 100 µM |  |  |  |  |  | > 100 µM |  | > 100 µM |  |  |  |  |  |  |  |  |  | > 100 µM
CCOC(=O)C(C(=O)OCC)=c1sc(=C(C(=O)OCC)C(=O)OCC)s1 |  | > 100 µM |  | > 100 µM |  |  |  | > 100 µM |  | > 100 µM |  |  |  |  |  |  |  | > 100 µM |  | 
CC(C)c1ccc2nc3ccc(C(=O)NCCN4CCN(c5ccccc5)CC4)cn3c(=O)c2c1 |  | > 100 µM |  | > 100 µM |  | > 100 µM |  | > 100 µM |  | > 100 µM |  | > 100 µM |  |  |  | > 100 µM |  | > 100 µM |  | > 100 µM
Cc1c(-c2nnc(-c3cc(Cl)c(Cl)cc3Cl)o2)nnn1-c1ccnc2c(C(F)(F)F)cccc12 | 33.8 µM | > 100 µM |  |  | 19.5 µM | 41.6 µM | 31.5 µM | > 100 µM | 24.6 µM | 67.4 µM | 20.2 µM | 53.2 µM | 26.8 µM | 75.1 µM | 22.7 µM | 57.1 µM | 25 µM | 62.2 µM | 16.8 µM | 34.7 µM
FC(F)(F)c1cccc(C2SCc3nc4ccccc4n32)c1 (stereo not given) |  | > 100 µM |  | > 100 µM |  |  |  |  |  | > 100 µM |  |  |  |  |  |  |  | > 100 µM |  | > 100 µM
C/C=C/C1=CN2C(=O)c3cc(OC4OC(C)C(NC)C(C)(O)C4O)c(C)c(O)c3N=C[C@@H]2C1 (stereo not given in full) | 0.065 µM |  | 0.0639 µM and < 0.01 µM | 41.5 µM | 0.0617 µM and < 0.01 µM | 10.7 µM |  | 11 µM |  |  |  |  | 0.0819 µM | 0.286 µM |  | 4.71 µM | 0.0342 µM and < 0.01 µM |  | 0.0926 µM and < 0.01 µM | 
